Experimental findings from BindingDB's records for doi:10.1021/jm00076a015 (University of Pennsylvania, 1994) are described below.

The target in the experiment is T1, Ribonucleoside-diphosphate reductase large subunit (Mus musculus, UniProt P07742).
T1 sequence (P07742 whole entry): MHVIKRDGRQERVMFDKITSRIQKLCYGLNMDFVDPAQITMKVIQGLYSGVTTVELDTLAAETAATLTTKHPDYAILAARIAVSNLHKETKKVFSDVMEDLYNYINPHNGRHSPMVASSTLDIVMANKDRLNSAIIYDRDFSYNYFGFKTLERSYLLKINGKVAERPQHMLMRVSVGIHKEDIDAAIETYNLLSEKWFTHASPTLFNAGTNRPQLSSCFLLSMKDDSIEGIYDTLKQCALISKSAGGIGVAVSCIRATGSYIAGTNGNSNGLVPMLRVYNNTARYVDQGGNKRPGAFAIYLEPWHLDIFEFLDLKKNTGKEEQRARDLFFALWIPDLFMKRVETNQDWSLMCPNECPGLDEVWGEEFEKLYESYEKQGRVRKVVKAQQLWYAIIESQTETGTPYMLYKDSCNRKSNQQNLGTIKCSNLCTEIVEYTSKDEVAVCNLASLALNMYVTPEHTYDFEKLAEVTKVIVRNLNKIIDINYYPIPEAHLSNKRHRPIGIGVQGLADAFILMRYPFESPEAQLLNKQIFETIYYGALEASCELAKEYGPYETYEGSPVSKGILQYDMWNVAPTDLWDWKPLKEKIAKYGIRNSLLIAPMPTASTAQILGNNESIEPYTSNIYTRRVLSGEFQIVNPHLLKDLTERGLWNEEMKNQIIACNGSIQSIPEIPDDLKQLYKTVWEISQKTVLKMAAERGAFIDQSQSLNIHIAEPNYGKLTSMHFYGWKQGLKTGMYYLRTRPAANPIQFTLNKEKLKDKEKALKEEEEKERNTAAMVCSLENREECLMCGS
The experiment can be described thus: ChEBML_195421.

Excerpt: Inhibitory activity of compound against mammalian ribonucleotide reductase; Range is 40-42

Usually IC50 stands for the concentration that inhibits the measured activity by half. In turn, Ac-AGAFTFNEDF-OH had an IC50 of 41 µM.
